Reference: patent EP1382597A2, “Steroid receptor modulator compounds and methods” (LIGAND PHARMACEUTICALS, INC., priority 1994, dated 1996)

What was measured:
[1] = target: T1, human PR-B (Homo sapiens, UniProt P06401); test: Co-transfection assay, PR agonist activity; assay type: cell-based; conditions: for Emax: CV-1, read-out: PR Agonist CV-1 Cells Efficacy (%);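 as to all read-outs here: CV-1 cells (African green monkey kidney) co-transfected with receptor plasmid and hormone-responsive firefly luciferase reporter, agonism read as compound-dependent rise in luciferase signal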
T1 construct: expressed in transfected cells; host or cells: CV-1 cells (African green monkey kidney fibroblasts), transient transfection
T1 sequence (P06401 1-933): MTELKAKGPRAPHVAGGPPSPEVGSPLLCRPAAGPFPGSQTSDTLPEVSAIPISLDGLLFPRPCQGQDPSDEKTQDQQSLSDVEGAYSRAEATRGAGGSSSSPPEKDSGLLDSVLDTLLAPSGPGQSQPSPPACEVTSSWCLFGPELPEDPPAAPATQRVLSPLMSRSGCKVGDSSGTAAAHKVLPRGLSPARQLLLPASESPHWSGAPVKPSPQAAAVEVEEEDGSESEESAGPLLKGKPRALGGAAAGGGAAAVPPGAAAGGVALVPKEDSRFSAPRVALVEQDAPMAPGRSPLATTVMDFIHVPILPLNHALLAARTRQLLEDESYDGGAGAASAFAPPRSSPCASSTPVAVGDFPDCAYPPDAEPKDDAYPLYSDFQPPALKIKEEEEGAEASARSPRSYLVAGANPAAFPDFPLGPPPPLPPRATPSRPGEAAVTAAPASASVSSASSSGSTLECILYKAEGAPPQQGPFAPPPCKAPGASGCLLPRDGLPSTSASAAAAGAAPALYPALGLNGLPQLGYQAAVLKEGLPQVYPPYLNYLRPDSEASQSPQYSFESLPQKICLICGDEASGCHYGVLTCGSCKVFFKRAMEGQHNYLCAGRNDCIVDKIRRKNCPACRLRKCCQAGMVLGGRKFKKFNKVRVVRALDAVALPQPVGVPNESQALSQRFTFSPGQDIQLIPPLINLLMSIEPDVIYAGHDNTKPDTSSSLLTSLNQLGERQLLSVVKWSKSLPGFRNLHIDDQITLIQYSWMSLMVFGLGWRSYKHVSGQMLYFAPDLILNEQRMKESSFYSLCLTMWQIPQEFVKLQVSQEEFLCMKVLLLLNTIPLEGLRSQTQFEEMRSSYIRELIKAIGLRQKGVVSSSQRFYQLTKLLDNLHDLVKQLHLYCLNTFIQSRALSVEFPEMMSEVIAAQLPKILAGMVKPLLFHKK

[2] = target: T1, human PR-B; test: Co-transfection assay, PR antagonist activity; assay type: cell-based; conditions: for Emax: CV-1, read-out: PR Antagonist CV-1 Cells Efficacy (%);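 as to all read-outs here: monkey kidney fibroblasts co-transfected with receptor expression plasmid and hormone-responsive luciferase reporter, antagonism read as reduced luciferase signal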
[3] = target: T2, AR (Rattus norvegicus, UniProt P15207); test: Immature castrated male rat model (antiandrogen activity); assay type: in vivo, rats (Sprague-Dawley); conditions: administered simultaneously with 0.1 mg of TP
T2 construct: from tissue; host or cells: live Sprague-Dawley rats; ventral prostate and seminal vesicles weighed
T2 sequence (P15207 1-902): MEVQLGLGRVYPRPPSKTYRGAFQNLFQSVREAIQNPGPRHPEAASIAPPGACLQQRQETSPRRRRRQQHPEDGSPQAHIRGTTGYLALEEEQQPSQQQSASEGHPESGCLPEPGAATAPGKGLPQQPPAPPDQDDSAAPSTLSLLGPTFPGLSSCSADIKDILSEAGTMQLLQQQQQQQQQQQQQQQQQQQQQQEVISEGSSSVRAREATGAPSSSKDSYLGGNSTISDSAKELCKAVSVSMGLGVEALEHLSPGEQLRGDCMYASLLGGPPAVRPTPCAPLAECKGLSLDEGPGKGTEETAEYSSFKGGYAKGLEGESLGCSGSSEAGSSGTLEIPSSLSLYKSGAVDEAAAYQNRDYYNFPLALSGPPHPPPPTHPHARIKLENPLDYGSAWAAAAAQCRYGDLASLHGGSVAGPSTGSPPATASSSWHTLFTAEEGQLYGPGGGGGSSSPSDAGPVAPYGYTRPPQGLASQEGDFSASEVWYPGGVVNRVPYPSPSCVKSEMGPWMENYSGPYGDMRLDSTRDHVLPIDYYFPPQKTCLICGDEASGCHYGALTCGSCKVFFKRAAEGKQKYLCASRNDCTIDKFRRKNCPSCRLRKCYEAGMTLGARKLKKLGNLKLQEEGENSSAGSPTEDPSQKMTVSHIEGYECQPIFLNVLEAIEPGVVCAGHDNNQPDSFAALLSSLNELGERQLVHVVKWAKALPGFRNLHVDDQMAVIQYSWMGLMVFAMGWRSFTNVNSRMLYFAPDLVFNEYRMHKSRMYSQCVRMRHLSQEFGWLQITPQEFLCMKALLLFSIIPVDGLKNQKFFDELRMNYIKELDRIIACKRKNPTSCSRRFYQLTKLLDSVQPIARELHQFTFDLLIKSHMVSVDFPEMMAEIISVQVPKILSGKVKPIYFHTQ
Text: Since the male sex organs are the tissues most responsive to modulation of androgen activity, this model is used to determine the androgen-dependent growth of the sex accessory organs in immature castrated rats.
At the end of the 3-day treatment, the animals were sacrificed, and the ventral prostates (VP) and seminal vesicles (SV) were collected and weighed. To compare data from different experiments, the sexual organ weights were first standardized as mg per 100 g of body weight, and the increase in organ weight induced by TP was considered as the maximum increase (100%). Super-anova (one factor) was used for statistical analysis.

**Q.** `CC1(C)Nc2ccc3c(c2C(=O)C1(C)C)C(c1ccc(Cl)cc1)Oc1ccccc1-3` (racemic) [Compound 379, (R/S)-5-(4-Chlorophenyl)-1,2,3,4-tetrahydro-2,2,3,3-tetramethyl-5H-chromeno[3,4-f]-4-quinolinone] was tested. Which Emax [1] did it give?
**A.** < 20%

**Q.** What about the Emax [2] of the same compound?
**A.** 87%

**Q.** How did the Emax [1] turn out when `CC1=CC(C)(C)Nc2ccc(-n3cnc(Cl)c3Cl)cc21` [Compound 103, 6-(4,5-Dichloroimidazol-1-yl)-1,2-dihydro-2,2,4-trimethylquinoline] was run?
**A.** < 20%

**Q.** What about the Emax [2] of the same compound?
**A.** 91%

**Q.** How did the Emax [1] turn out when `CCCCC1Oc2ccccc2-c2ccc3c(c21)C(C)C(O)(CCCC)C(C)(C)N3` (racemic) [Compound 385, (R/S)-3,5-Dibutyl-1,2,3,4-tetrahydro-3-hydroxy-2,2,4-trimethyl-5H-chromeno[3,4-f]quinoline] was run?
**A.** 27%

**Q.** And the Emax [2]?
**A.** 45%

**Q.** For `CC1=CC(C)(C)Nc2cc3c(cc21)c(C(F)(F)F)cc(=O)n3C` [Compound 261, 1,2-Dihydro-2,2,4,9-tetramethyl-6-trifluoromethyl-8-pyridono[5,6-g]quinoline], which “effect on testosterone-mediated increases in the weights of VP and SV” value [3] is on record?
**A.** exhibited AR antagonist activity by suppressing the testosterone-mediated increases in the weights of the VP and SV

**Q.** How did the Emax [1] turn out when `CC1C(=O)C(C)(C)Nc2ccc(-c3cc(F)cc(C#N)c3)cc21` (stereo not shown) [Compound 286, 6-(3-Cyano-5-fluorophenyl)-1,2-dihydro-2,2,4-trimethyl-3-quinolone] was run?
**A.** < 20%

**Q.** What about the Emax [2] of the same compound?
**A.** 84%

**Q.** Which results are given for `CC1=CC(C)(C)Nc2ccc(-c3cccc(Cl)c3Cl)cc21` [Compound 109, 6-(2,3-Dichlorophenyl)-1,2-dihydro-2,2,4-trimethylquinoline]?
**A.** Emax [1]: < 20%; Emax [2]: 87%

**Q.** For `CCCO[C@@H]1[C@@H](C)c2c(ccc3c2[C@H](c2ccc(Cl)cc2)Oc2ccccc2-3)NC1(C)C` (relative stereo) [Compound 400, (R/S-3l,4u,5u)-5-(4-Chlorophenyl)-1,2,3,4-tetrahydro-3-propyloxy-2,2,4-trimethyl-5H-chromeno[3,4-f]quinoline], which Emax [1] is on record?
**A.** < 20%

**Q.** And the Emax [2]?
**A.** 68%

**Q.** `CC1=CC(C)(C)Nc2ccc3c(c21)/C(=C/c1ccccc1F)Oc1ccccc1-3` [Compound 228, (Z)-5-(2-Fluorobenzylidene)-1,2-dihydro-2,2,4-trimethyl-5H-chromeno[3,4-f]quinoline] was tested. Which Emax [1] did it give?
**A.** 114%

**Q.** And the Emax [2]?
**A.** < 20%

**Q.** For `CC1=CC(C)(C)Nc2ccc3c(c21)C(C)Oc1ccc(Cl)cc1-3` (racemic) [Compound 332, (R/S)-9-Chloro-1,2-dihydro-2,2,4,5-tetramethyl-5H-chromeno[3,4-f]quinoline], which Emax [1] is on record?
**A.** 138%

**Q.** What about the Emax [2] of the same compound?
**A.** < 20%

**Q.** How did the “PR Agonist CV-1 Cells Efficacy (%)” value ([1]; CV-1 cells, percent maximal response relative to reference agonist progesterone) turn out when `CC1(C)C=Cc2c(ccc3c2c(=O)oc2ccc(Cl)cc23)N1` [Compound 313, 9-Chloro-1,2-dihydro-2,2-dimethyl-5-coumarino[3,4-f]quinoline] was run?
**A.** 26%

**Q.** And the “PR Antagonist CV-1 Cells Efficacy (%)” value ([2]; CV-1 cells, percent maximal inhibition, progesterone at its EC50)?
**A.** 94%

**Q.** With `CC1(C)C=Cc2c(ccc3c2/C(=C/c2ccccc2)Oc2ccc(Cl)cc2-3)N1` [Compound 368, (Z)-5-Benzylidene-9-chloro-1,2-dihydro-2,2-dimethyl-5H-chromeno[3,4-f]quinoline] as the compound, how does the Emax [1] read?
**A.** 183%

**Q.** What about the Emax [2] of the same compound?
**A.** < 20%

**Q.** `CC1=CC(C)(C)Nc2ccc(-c3csc(C#N)c3)cc21` [Compound 452, 6-(5-Cyano-3-thienyl)-1,2-dihydro-2,2,4-trimethylquinoline] was tested. Which Emax [1] did it give?
**A.** 119%

**Q.** And the Emax [2]?
**A.** 70%

**Q.** What does the source list for `CC1=CC(C)(C)Nc2ccc(-c3nn(C)cc3Br)cc21` [Compound 104, 6-(4-Bromo-1-methylpyrazol-3-yl)-1,2-dihydro-2,2,4-trimethylquinoline]?
**A.** Emax [1]: 39%; Emax [2]: 71%

**Q.** `CC1CC(C)(C)Nc2ccc(-c3cc(F)cc(C#N)c3)cc21` (racemic) [Compound 455, (R/S)-6-(3-Cyano-5-fluorophenyl)-1,2,3,4-Tetrahydro-2,2,4-trimethylquinoline] was tested. Which Emax [1] did it give?
**A.** < 20%

**Q.** What about the Emax [2] of the same compound?
**A.** 76%

**Q.** For `CC1=CC(C)(C)Nc2ccc(-c3cccc([N+](=O)[O-])c3)c(Cl)c21` [Compound 310, 5-Chloro-1,2-dihydro-2,2,4-trimethyl-6-(3-nitrophenyl)quinoline], which Emax [1] is on record?
**A.** < 20%

**Q.** And the Emax [2]?
**A.** 70%

**Q.** With `CC1=CC(C)(C)Nc2ccc3c(c21)/C(=C/c1ccc(F)cc1)Oc1ccccc1-3` [Compound 221, (Z)-5-(4-Fluorobenzylidene)-1,2-dihydro-2,2,4-trimethyl-5H-chromeno[3,4-f]quinoline] as the compound, how does the Emax [1] read?
**A.** 105%

**Q.** What about the Emax [2] of the same compound?
**A.** < 20%

**Q.** With `CC1=CC(C)(C)Nc2c(F)cc(-c3cccc([N+](=O)[O-])c3)cc21` [Compound 291, 8-Fluoro-1,2-dihydro-2,2,4-trimethyl-6-(3-nitrophenyl)quinoline] as the compound, how does the Emax [1] read?
**A.** < 20%

**Q.** And the Emax [2]?
**A.** 79%

**Q.** What does the source list for `CC1=CC(C)(C)Nc2ccc3c(c21)COc1c(Cl)cccc1-3` [Compound 331, (R/S)-7-Chloro-1,2-dihydro-2,2,4-trimethyl-5H-chromeno[3,4-f]quinoline]?
**A.** Emax [1]: < 20%; Emax [2]: 88%

**Q.** For `CC1=CC(C)(C)Nc2cc(C)c3c(c21)/C(=C/c1ccccc1)Oc1ccc(F)cc1-3` [Compound 377, (Z)-5-Benzylidene-9-fluoro-1,2-dihydro-2,2,4,11-tetramethyl-5H-chromeno[3,4-f]quinoline], which Emax [1] is on record?
**A.** 101%

**Q.** And the Emax [2]?
**A.** < 20%

**Q.** With `CC1=CC(C)(C)Nc2ccc3c(c21)/C(=C/c1ccccc1C)Oc1ccc(F)cc1-3` [Compound 374, (Z)-9-Fluoro-1,2-dihydro-2,2,4-trimethyl-5-(2-methylbenzylidene)-5H-chromeno[3,4-f]quinoline] as the compound, how does the Emax [1] read?
**A.** 231%

**Q.** What about the Emax [2] of the same compound?
**A.** < 20%

**Q.** `CC1=CC(C)(C)Nc2ccc(-c3cc(F)cc(C#N)c3)cc21` [Compound 271, 6-(3-Cyano-5-fluorophenyl)-1,2-dihydro-2,2,4-trimethylquinoline] was tested. Which “PR Agonist CV-1 Cells Efficacy (%)” value ([1]; cv-1 cells) did it give?
**A.** na (key: na = not active (i.e. efficacy of <20 and potency of >10,000))

**Q.** Which Emax [1] does the source give for `CC1=CC(C)(C)Nc2ccc3c(c21)/C(=C/c1ccccc1)Oc1ccccc1-3` [Compound 220, (Z)-5-Benzylidene-1,2-dihydro-2,2,4-trimethyl-5H-chromeno[3,4-f]quinoline] here?
**A.** 147%

**Q.** And the Emax [2]?
**A.** < 20%

**Q.** For `CC1C(=O)C(C)(C)Nc2ccc3c(c21)/C(=C/c1cccc(F)c1)Oc1ccccc1-3` (racemic) [Compound 389, (Z)-(R/S)-5-(3-Fluorobenzylidene)-1,2,3,4-tetrahydro-2,2,4-trimethyl-5H-chromeno[3,4-f]-3-quinolinone], which Emax [1] is on record?
**A.** 133%

**Q.** And the Emax [2]?
**A.** < 20%

**Q.** With `CC(=O)[C@H]1CC[C@H]2[C@@H]3CCC4=CC(=O)CC[C@]4(C)[C@H]3CC[C@]12C` [Prog, progesterone, reference compound] as the compound, how does the Emax [1] read?
**A.** 100%

**Q.** What about the Emax [2] of the same compound?
**A.** < 20%
